In PubChem BioAssay AID743340 (Broad Institute, 2014):
Records with an inconclusive call do not appear. The source made the active and inactive calls.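 How the source made its calls: active means compounds whose fitted AC50 for signal loss is at most twice the top valid dose tested; inconclusive means flat curve with 30 to 70% inhibition, or poor fit; inactive means the rest.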

Target: Leucyl-cystinyl aminopeptidase (Mus musculus) (UniProt Q8C129)
Assay: inhibition of mouse IRAP aminopeptidase activity – biochemical, Leu-AMC fluorescence, cherry-picked samples, set 2, selectivity assay for ERAP1 modulator project, dose response (AID 743340)
Settings: purified IRAP, Leu-AMC cleavage fluorescence, 1 h

Leucyl-cystinyl aminopeptidase (Mus musculus), sequence (Q8C129 whole entry, looked up): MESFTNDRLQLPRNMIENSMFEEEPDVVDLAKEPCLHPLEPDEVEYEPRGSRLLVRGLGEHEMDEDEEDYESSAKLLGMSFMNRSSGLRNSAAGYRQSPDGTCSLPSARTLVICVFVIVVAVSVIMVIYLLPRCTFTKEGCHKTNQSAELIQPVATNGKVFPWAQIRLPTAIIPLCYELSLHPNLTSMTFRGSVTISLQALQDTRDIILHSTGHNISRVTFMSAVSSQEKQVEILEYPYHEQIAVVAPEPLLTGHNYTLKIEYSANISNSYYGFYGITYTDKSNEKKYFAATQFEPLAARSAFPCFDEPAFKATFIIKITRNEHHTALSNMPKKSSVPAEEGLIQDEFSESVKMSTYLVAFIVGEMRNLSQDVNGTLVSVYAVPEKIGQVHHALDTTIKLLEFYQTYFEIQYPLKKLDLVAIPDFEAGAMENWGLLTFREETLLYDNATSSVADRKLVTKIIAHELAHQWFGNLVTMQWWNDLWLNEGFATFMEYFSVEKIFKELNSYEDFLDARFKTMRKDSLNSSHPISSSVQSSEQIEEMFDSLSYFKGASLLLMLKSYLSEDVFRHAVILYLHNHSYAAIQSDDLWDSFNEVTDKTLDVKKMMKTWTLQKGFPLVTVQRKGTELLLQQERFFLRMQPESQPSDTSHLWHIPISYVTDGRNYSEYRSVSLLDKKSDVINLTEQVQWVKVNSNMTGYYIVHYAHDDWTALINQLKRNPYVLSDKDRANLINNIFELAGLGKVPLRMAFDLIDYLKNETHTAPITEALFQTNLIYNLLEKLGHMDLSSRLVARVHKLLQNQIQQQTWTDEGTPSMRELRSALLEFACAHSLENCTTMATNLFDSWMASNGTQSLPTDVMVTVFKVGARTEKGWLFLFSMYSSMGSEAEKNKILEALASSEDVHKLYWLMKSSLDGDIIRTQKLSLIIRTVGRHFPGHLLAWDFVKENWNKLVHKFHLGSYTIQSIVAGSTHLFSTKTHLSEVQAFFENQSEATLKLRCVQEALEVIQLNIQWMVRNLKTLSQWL

CCn1cc(CN2CCCC(C(=O)Nc3ccc(-c4nc5ccccc5[nH]4)cc3)C2)c(C)n1 (configuration not stated)
activity change, negative = inhibition (at 11 µM (top of the series)): inactive

CCCNC(=O)C[C@@H]1CC[C@@H]2[C@H](COC[C@H](O)CN2C(=O)Nc2cccc(Cl)c2)O1
activity change, negative = inhibition (at 11 µM (top of the series)): inactive

C[C@@H]1CCCCO[C@@H](CN(C)C(=O)CCC(F)(F)F)[C@@H](C)CN([C@@H](C)CO)C(=O)c2cc(NS(=O)(=O)c3ccc(Cl)cc3)ccc2O1
activity change, negative = inhibition (at 5 µM (top of the series)): inactive

C[C@@H]1CCCCO[C@@H](CN(C)Cc2ccc(C(=O)O)cc2)[C@@H](C)CN([C@H](C)CO)C(=O)c2cc(NC(=O)Nc3cccc4ccccc34)ccc2O1
activity change, negative = inhibition (at 11 µM (top of the series)): inactive

COc1ccc(CN(C)C[C@H]2OCCCC[C@@H](C)Oc3ccc(NS(=O)(=O)c4cccs4)cc3C(=O)N([C@H](C)CO)C[C@H]2C)cc1
activity change, negative = inhibition (at 11 µM (top of the series)): inactive

Cc1ccc(-c2cc(C(=O)N3CCCC3)c3ccccc3n2)s1
activity change, negative = inhibition (at 11 µM (top of the series)): inactive

C[C@H](CO)N1C[C@H](C)[C@H](CN(C)Cc2ccc(C(=O)O)cc2)Oc2c(NC(=O)Nc3ccccc3)cccc2C1=O
activity change, negative = inhibition (at 11 µM (top of the series)): inactive

N#Cc1c(N2CCNCC2)nc(-c2ccco2)c2c1CCCC2
activity change, negative = inhibition (at 11 µM (top of the series)): inactive

Cc1ccc2nc3c(cc(C(=O)NCc4ccccc4)c(=N)n3CCCn3ccnc3)c(=O)n2c1
activity change, negative = inhibition (at 11 µM (top of the series)): inactive

Cc1ccccc1-c1ccc2c(c1)O[C@@H](CN(C)Cc1ccc(C(=O)O)cc1)[C@@H](C)CN([C@@H](C)CO)S2(=O)=O
activity change, negative = inhibition (at 11 µM (top of the series)): inactive

C[C@@H]1CCCCO[C@@H](CN(C)CC2CC2)[C@@H](C)CN([C@H](C)CO)C(=O)c2cc(NS(=O)(=O)c3cccs3)ccc2O1
activity change, negative = inhibition (at 11 µM (top of the series)): inactive

Cc1ccccc1-c1ccc2c(c1)O[C@@H](CN(C)Cc1ccc(C(=O)O)cc1)[C@@H](C)CN([C@H](C)CO)S2(=O)=O
activity change, negative = inhibition (at 11 µM (top of the series)): inactive

C[C@H](CO)N1C[C@H](C)[C@H](CN(C)CC2CCCCC2)Oc2c(NC(=O)Nc3ccc(C(F)(F)F)cc3)cccc2C1=O
activity change, negative = inhibition (at 11 µM (top of the series)): inactive

O=C(C[C@H]1CC[C@H]2[C@@H](COC[C@@H](O)CN2C(=O)Nc2cccc(Cl)c2)O1)N1CCCCC1
activity change, negative = inhibition (at 11 µM (top of the series)): inactive

C[C@@H]1CCCCO[C@H](CN(C)Cc2ccccc2)[C@H](C)CN([C@H](C)CO)C(=O)c2cc(NS(=O)(=O)c3ccccc3)ccc2O1
activity change, negative = inhibition (at 11 µM (top of the series)): inactive

CCCN(C)C[C@@H]1OCCCC[C@@H](C)Oc2ccc(NS(=O)(=O)c3cccs3)cc2C(=O)N([C@H](C)CO)C[C@@H]1C
activity change, negative = inhibition (at 11 µM (top of the series)): inactive

O=C(C[C@@H]1CC[C@@H]2[C@H](COC[C@H](O)CN2C(=O)Nc2cccc(Cl)c2)O1)N1CCCCC1
activity change, negative = inhibition (at 11 µM (top of the series)): inactive

O=C(Nc1ccc(C(F)(F)F)cc1)N1[C@@H]2CNC[C@H]1C2c1ccc(-c2ccncc2)cc1 (some centres not stated)
activity change, negative = inhibition (at 11 µM (top of the series)): inactive

C[C@@H]1CCCCO[C@@H](CN(C)C(=O)CCC(F)(F)F)[C@@H](C)CN([C@@H](C)CO)C(=O)c2cc(NS(=O)(=O)c3ccccc3)ccc2O1
activity change, negative = inhibition (at 2.6 µM (top of the series)): inactive

C[C@@H]1CCCCO[C@H](CN(C)Cc2ccc(C(=O)O)cc2)[C@@H](C)CN([C@H](C)CO)C(=O)c2cc(NC(=O)Nc3ccc(C(F)(F)F)cc3)ccc2O1
activity change, negative = inhibition (at 11 µM (top of the series)): inactive

COc1ccc(CN(C)C[C@@H]2OCCCC[C@@H](C)Oc3ccc(NS(=O)(=O)c4cccs4)cc3C(=O)N([C@H](C)CO)C[C@@H]2C)cc1
activity change, negative = inhibition (at 11 µM (top of the series)): inactive

COc1ccc(S(=O)(=O)Nc2ccc3c(c2)C(=O)N([C@@H](C)CO)C[C@H](C)[C@H](CN(C)C)OCCCC[C@@H](C)O3)cc1
activity change, negative = inhibition (at 11 µM (top of the series)): inactive
